Assays:
Assay in all cases: relative viability (nuclei count vs DMSO), 5 days (fraction); higher = more cells survive
[1] = compound: CN(C)CC1=CC(=CC=C1)N=C(C2=CC=CC=C2)C3=C(NC4=C3C=CC(=C4)C(=O)N(C)C)O + O=C(CCCCCCC(=O)Nc1ccccc1)NO [Vorinostat] (partner 1 µM)
Outline: (§1)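 Lung cancer cell lines were pin-tool dosed in 1536-well plates on the day after seeding, with either a lone drug or a fixed anchor-drug dose plus five library-drug doses (not always all listed) in √10 steps. Nuclei were counted on 4× images after 5 days. Relative viability is the ratio of treated-well to vehicle-well nuclei counts, with each value a median of duplicate plates.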

[2] = compound: CN(C)CC1=CC(=CC=C1)N=C(C2=CC=CC=C2)C3=C(NC4=C3C=CC(=C4)C(=O)N(C)C)O + COc1cc2c(Oc3ccc(NC(=O)C4(C(=O)Nc5ccc(F)cc5)CC4)cc3F)ccnc2cc1OCCCN1CCOCC1 [Foretinib] (partner 0.25 µM)
Outline: as §1

[3] = compound: CN(C)CC1=CC(=CC=C1)N=C(C2=CC=CC=C2)C3=C(NC4=C3C=CC(=C4)C(=O)N(C)C)O + NC(=O)Nc1cc(-c2cccc(F)c2)sc1C(=O)N[C@H]1CCCNC1 [AZD7762] (partner 0.2 µM)
Outline: as §1

[4] = compound: CN(C)CC1=CC(=CC=C1)N=C(C2=CC=CC=C2)C3=C(NC4=C3C=CC(=C4)C(=O)N(C)C)O + CS(=O)(=O)N1CCN(Cc2cc3nc(-c4cccc5[nH]ncc45)nc(N4CCOCC4)c3s2)CC1 [Pictilisib] (partner 1 µM)
Outline: as §1

Row | Cell Line | relative viability ([1]; first compound 0.08 µM) | relative viability ([1]; first compound 0.253 µM) | relative viability ([1]; first compound 0.8 µM) | relative viability ([1]; first compound 2.53 µM) | relative viability ([1]; first compound 8 µM) | relative viability ([2]; first compound 0.08 µM) | relative viability ([2]; first compound 0.253 µM) | relative viability ([2]; first compound 0.8 µM) | relative viability ([2]; first compound 2.53 µM) | relative viability ([2]; first compound 8 µM) | relative viability ([3]; first compound 0.08 µM) | relative viability ([3]; first compound 0.253 µM) | relative viability ([3]; first compound 0.8 µM) | relative viability ([3]; first compound 2.53 µM) | relative viability ([3]; first compound 8 µM) | relative viability ([4]; first compound 0.08 µM) | relative viability ([4]; first compound 0.253 µM) | relative viability ([4]; first compound 0.8 µM) | relative viability ([4]; first compound 2.53 µM) | relative viability ([4]; first compound 8 µM)
1 | ABC-1 | 1.34 | 1.21 | 1.1 | 0.895 | 1.14 | 1.31 | 1.12 | 0.851 | 1 | 1.28 | 0.805 | 1.11 | 0.81 | 0.903 | 0.676 | 0.613 | 0.811 | 0.599 | 0.643 | 0.64
2 | HCC-366 | 0.471 | 0.369 | 0.458 | 0.299 | 0.473 | 0.903 | 0.889 | 0.888 | 0.83 | 0.85 | 0.303 | 0.252 | 0.248 | 0.157 | 0.315 | 0.177 | 0.179 | 0.166 | 0.111 | 0.127
3 | NCI-H2170 | 0.93 | 0.884 | 0.693 | 0.829 | 0.643 | 0.99 | 1.01 | 1.03 | 0.966 | 0.857 | 0.921 | 0.88 | 0.589 | 0.867 | 0.682 | 0.299 | 0.329 | 0.238 | 0.303 | 0.297
4 | NCI-H358 | 0.73 | 0.629 | 0.585 | 0.582 | 0.482 | 0.696 | 0.808 | 0.515 | 0.585 | 0.506 | 0.635 | 0.463 | 0.419 | 0.471 | 0.485 | 0.384 | 0.28 | 0.34 | 0.331 | 0.347
5 | NCI-H1651 | 0.558 | 0.547 | 0.573 | 0.599 | 0.593 | 0.865 | 0.777 | 0.87 | 0.735 | 0.816 | 0.483 | 0.474 | 0.414 | 0.435 | 0.397 | 0.685 | 0.647 | 0.636 | 0.474 | 0.608
6 | EKVX | 0.778 | 0.726 | 0.648 | 0.858 | 0.773 | 0.88 | 1.06 | 0.555 | 0.776 | 0.804 | 0.745 | 0.727 |  | 0.726 | 0.696 | 0.425 | 0.452 | 0.384 | 0.431 | 0.574
7 | NCI-H1993 | 0.904 | 0.79 |  | 1.14 | 0.994 | 0.721 | 0.811 | 0.81 | 0.824 | 0.935 | 0.59 | 0.705 |  | 0.937 | 0.877 | 0.826 | 0.86 | 0.98 | 0.799 | 0.768
8 | LXF-289 | 0.778 | 0.745 | 0.756 | 0.72 | 0.727 | 0.966 | 0.9 | 1.03 | 0.93 | 0.929 | 1.12 | 1.05 | 1.11 | 0.894 | 1.08 | 0.778 | 0.793 | 0.794 | 0.706 | 0.731
